From ChEMBL document CHEMBL4715747 (Eur J Med Chem, 2016) come the findings set out here.

The source made the active and inactive calls. The calls are words filed in the database; no cut-off is given here. Some results are limits rather than exact numbers.

Data set [1] has as its system H22. Description: Antitumor activity against mouse H22 cells transplanted in Kunming mouse assessed as tumor growth inhibition at 100 mg/kg/day, po administered 5 days per week for 2 weeks. In kind it is functional, organism-based.
A short description of data set [2]: Antiproliferative activity against human 3AO cells after 48 hrs by MTT assay. (In general: Tetrazolium assays rely on reduction of a dye to a coloured formazan, in cell work by metabolically active cells.)
Another data set deals with HepG2. Briefly: Antiproliferative activity against human HepG2 cells after 48 hrs by MTT assay. Conditions: HepG2, 48 h.
Data set [3] in a line: Antiproliferative activity against human H7402 cells after 48 hrs by MTT assay. Conditions: H7402, 48 h.
For a further data set, the system named is MDA-MB-231. Description: cells. To be noted: Homo sapiens, MDA-MB-231, 48 h.
A further data set relates to HeLa. Description: Antiproliferative activity against human HeLa cells after 48 hrs by MTT assay.
The test system of data set [4] is HUVEC. Briefly: Anti-angiogenesis activity in HUVEC assessed as inhibition of capillary like tube formation at 30 uM incubated for 6 hrs by matrigel based capillary tube formation assay. It counts as functional.
In the next data set the test system is HCT-116. Description: Antiproliferative activity against human HCT-116 cells after 48 hrs by MTT assay. To be noted: HCT-116, 48 h.
For another data set, the system named is Aorta. Description: Anti-angiogenesis activity in Wistar rat thoracic aortic rings assessed as decrease in number of microvessels sprouting at 20 ug/ml treated every other day for 9 days. It counts as functional, tissue-based. Conditions: dose 20.0 µg/ml, time 9.0 day.
Data set [5] deals with PLC-PRF-5. Description: Antiproliferative activity against human PLC-PRF-5 cells after 48 hrs by MTT assay. To be noted: PLC-PRF-5, 48 h.
Another data set deals with KG-1. Briefly: Antiproliferative activity against human KG1 cells after 48 hrs by MTT assay. To be noted: KG-1, 48 h.
The subject of the next data set is MCF7. Briefly: Antiproliferative activity against human MCF7 cells after 48 hrs by MTT assay. Conditions: MCF7, 48 h.
Data set [6] can be described thus: Antiproliferative activity against human ES2 cells after 48 hrs by MTT assay. To be noted: ES-2, 48 h.
The next data set has as its system HEL. Briefly: cells. To be noted: Homo sapiens, 48 h.
Data set [7] is described as follows: Prodrug conversion in human plasma assessed as release of active metabolites 5-FU and Ube measured within 30 mins at 37 degC. In kind it is ADME, cell-free. To be noted: 0.5 h.
Data set [8] in a line: Toxicity in Kunming mouse transplanted with 5-FU-resistant mouse H22 cells assessed as change in body weight at 200 uM/kg/day, po administered daily for 14 days. It counts as organism-based. Conditions: in vivo, 336 h, time 14 day.
Data set [9] is described as follows: Toxicity in Kunming mouse transplanted with mouse H22 cells assessed as side effects at 40 to 80 mg/kg/day, po administered 5 days per week for 2 weeks. In kind it is organism-based. To be noted: in vivo, 336 h, dose 40-80 mg/kg/day.
The nature of data set [10]: Toxicity in Kunming mouse transplanted with mouse H22 cells assessed as change in body weight at 40 to 80 mg/kg/day, po administered 5 days per week for 2 weeks. In kind it is organism-based. To be noted: in vivo, 336 h, dose 40-80 mg/kg/day.
Data set [11] has as its system H22. Briefly: Antitumor activity against mouse H22 cells transplanted in Kunming mouse assessed as tumor growth inhibition at 80 mg/kg/day, iv administered 5 days per week for 2 weeks relative to treated combination of 5-FU and Ube. It counts as functional, organism-based.
Data set [12] deals with H22. Description: Antimetastatic activity against mouse H22 cells inoculated in orally dosed Kunming mouse assessed as reduction in lung metastatic nodes administered for 5 days starting from day 11 post inoculation and 2 days of withdrawal measured after 24 days. It counts as functional, organism-based. Conditions: dose 80-100 mg/kg, time 5.0 day.
Data set [13] can be described thus: Toxicity in NOD/SCID mouse xenografted with human PLC-PRF-5 cells assessed as change in body weight at 100 to 120 mg/kg, po. It counts as organism-based. Conditions: in vivo, dose 100-120 mg/kg. Background: Xenograft models place foreign cells or tissue in a host animal.
In data set [14] the test system is H22. Description: Antitumor activity against mouse H22 cells transplanted in orally dosed Kunming mouse assessed as tumor growth inhibition administered 5 days per week for 2 weeks. In kind it is functional, organism-based. Conditions: dose 40-80 mg/kg.
Data set [15] can be described thus: Toxicity in BALB/c athymic nude mouse xenografted with human PLC-PRF-5 cells assessed as change in body weight at 20 to 80 mg/kg, iv. In kind it is organism-based. Conditions: in vivo, dose 20-80 mg/kg.
In data set [16] the test system is PLC-PRF-5. Description: Antitumor activity against human PLC-PRF-5 cells xenografted in iv dosed BALB/c athymic nude mouse assessed as tumor growth inhibition. To be noted: dose 20-80 mg/kg. In kind it is functional, organism-based.
The test system of a further data set is PC-3. Description: cells. To be noted: Homo sapiens, PC-3, 48 h.
Data set [17] has as its system H22. Briefly: Antitumor activity against 5-FU-resistant mouse H22 cells transplanted in Kunming mouse assessed as tumor growth inhibition at 200 uM/kg/day, po administered for 14 days. In kind it is functional, organism-based. To be noted: time 14.0 day.
Data set [18] relates to H22. Briefly: Antitumor activity against mouse H22 cells transplanted in iv dosed Kunming mouse assessed as tumor growth inhibition administered 5 days per week for 2 weeks. In kind it is functional, organism-based. Conditions: dose 20-80 mg/kg.
For a further data set, the system named is A549. Description: Antiproliferative activity against human A549 cells after 48 hrs by MTT assay. To be noted: A549, 48 h.
In data set [19] the test system is HUVEC. Description: Anti-angiogenesis activity in HUVEC assessed as inhibition of capillary like tube formation incubated for 6 hrs by matrigel based capillary tube formation assay. It counts as functional, cell-based. Conditions: Homo sapiens, dose 10-30 µM.
Another data set addresses T1, Aminopeptidase N (Sus scrofa, UniProt P15145).
T1 sequence (P15145 whole entry): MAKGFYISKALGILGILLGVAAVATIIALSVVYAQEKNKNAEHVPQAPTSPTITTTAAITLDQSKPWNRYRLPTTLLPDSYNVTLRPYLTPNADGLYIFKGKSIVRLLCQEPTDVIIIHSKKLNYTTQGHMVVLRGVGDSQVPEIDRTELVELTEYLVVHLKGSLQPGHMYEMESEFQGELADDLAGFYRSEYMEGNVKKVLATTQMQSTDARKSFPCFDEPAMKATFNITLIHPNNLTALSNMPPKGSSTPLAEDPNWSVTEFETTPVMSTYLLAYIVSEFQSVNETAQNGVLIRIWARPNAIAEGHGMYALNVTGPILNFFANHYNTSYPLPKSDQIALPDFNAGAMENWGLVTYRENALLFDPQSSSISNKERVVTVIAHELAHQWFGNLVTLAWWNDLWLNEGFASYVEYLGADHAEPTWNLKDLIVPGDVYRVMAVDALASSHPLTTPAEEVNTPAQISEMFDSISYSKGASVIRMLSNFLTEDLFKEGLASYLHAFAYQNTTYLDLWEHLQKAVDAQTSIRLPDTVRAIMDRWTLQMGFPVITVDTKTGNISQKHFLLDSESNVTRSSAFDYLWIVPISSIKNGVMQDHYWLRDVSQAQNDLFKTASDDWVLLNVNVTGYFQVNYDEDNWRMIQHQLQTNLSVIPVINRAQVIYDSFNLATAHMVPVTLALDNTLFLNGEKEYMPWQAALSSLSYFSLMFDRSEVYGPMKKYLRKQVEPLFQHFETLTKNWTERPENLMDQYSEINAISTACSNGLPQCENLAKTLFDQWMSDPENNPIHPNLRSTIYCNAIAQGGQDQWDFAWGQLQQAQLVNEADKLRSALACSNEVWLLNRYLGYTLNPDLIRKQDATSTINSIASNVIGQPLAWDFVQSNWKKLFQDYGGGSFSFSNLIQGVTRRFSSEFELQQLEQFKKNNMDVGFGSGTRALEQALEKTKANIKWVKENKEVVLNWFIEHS
Description: Inhibition of porcine kidney microsomal CD13 using L-leucine-p-nitroanilide as substrate preincubated for 5 mins followed by substrate addition and measured after 30 mins by microplate reader analysis. It counts as microsomes, Microsome.

In data set [20] the test system is PLC-PRF-5. Description: Antitumor activity against human PLC-PRF-5 cells xenografted in orally dosed NOD/SCID mouse assessed as tumor growth inhibition. To be noted: dose 100-120 mg/kg. It counts as functional, organism-based.
The subject of data set [21] is H22. Description: Antitumor activity against mouse H22 cells transplanted in Kunming mouse assessed as tumor growth inhibition at 80 mg/kg/day, po administered 5 days per week for 2 weeks. It counts as functional, organism-based.
Data set [22] deals with H22. Description: Antitumor activity against mouse H22 cells transplanted in Kunming mouse assessed as tumor growth inhibition at 20 mg/kg/day, ip administered 5 days per week for 2 weeks. It counts as functional, organism-based.

Description for MDA-MB-231: Antiproliferative activity against human MDA-MB-231 cells after 48 hrs by MTT assay
Description for PC-3: Antiproliferative activity against human PC-3 cells after 48 hrs by MTT assay

With `CCCCCOC(=O)Nc1nc(=O)n([C@@H]2O[C@H](C)[C@@H](O)[C@H]2O)cc1F`, in the data set with H22 [1], the outcome was Active.
For the compound `CC(C)C[C@H](NC(=O)[C@@H](O)[C@H](N)Cc1ccccc1)C(=O)O` [UBENIMEX], the half-inhibitory concentration (IC50) in data set [2] was above 500 µM; in the data set with HepG2, above 500 µM; in data set [3] it was above 500 µM; in the data set with MDA-MB-231, above 500 µM; with HeLa it was above 500 µM; with HCT-116 it was 315 µM. The IC50 is above 500 µM in the data set on PLC-PRF-5 [5]; above 500 µM in the data set on KG-1; above 500 µM with MCF7; above 500 µM in [6]; 417 µM in the data set with HEL. Also, the outcome with HUVEC [4] (Homo sapiens) and with Aorta was Active.
Consider `CC(C)C[C@H](NC(=O)[C@@H](O)[C@H](N)Cc1ccccc1)C(=O)OCn1cc(F)c(=O)[nH]c1=O.Cl`, for which the Drug metabolism result in data set [7] was “Metabolite_Detected”. Also, the IC50 stood at 25.9 µM in [2]; 7.49 µM in the data set on HepG2; 11.5 µM in data set [3]; 10.5 µM with MDA-MB-231; 7.27 µM in the data set with HeLa; 14.7 µM in the data set with HCT-116. Besides, the IC50 in the data set with PLC-PRF-5 [5] was 17.5 µM; in the data set with PC-3, 24.3 µM; with KG-1, 30.9 µM; in the data set on MCF7, 19 µM; in data set [6] it was 22.8 µM; in the data set with A549, 5.68 µM. Also, the IC50 is 9.18 µM with HEL and 6.98 µM on Aminopeptidase N. The Activity entry in data set [8] was “Non-Toxic”; in data set [9] it was “Non-Toxic”; in data set [10], “Non-Toxic”; with HUVEC [4], 100%; in the data set on H22 [12], “Dose-dependent effect”; in data set [13], “Non-Toxic”. Also, the Activity result in the data set on H22 [14] is “Dose-dependent effect”; in data set [15], “Non-Toxic”; in the data set with PLC-PRF-5 [16], “Dose-dependent effect”; in the data set with H22 [18], “Dose-dependent effect”; with HUVEC [19], “Dose-dependent effect”; in the data set on PLC-PRF-5 [20], “Dose-dependent effect”. Moreover, the outcome in the data set on H22 [11], in the data set with Aorta, in the data set on H22 [17] and in the data set on H22 [21] was Active.
Turning to `O=c1[nH]cc(F)c(=O)[nH]1` [FLUOROURACIL], the IC50 turned out to be 60.8 µM in [2]; 13.5 µM in the data set on HepG2; 29 µM in data set [3]; 22.5 µM in the data set on MDA-MB-231; 133 µM in the data set on HeLa; 84.9 µM in the data set with HCT-116. In addition, the IC50 in the data set with PLC-PRF-5 [5] worked out at 38.4 µM; with PC-3 it was 106 µM; with KG-1, 83 µM; with MCF7 it was 71.5 µM; in [6], 93.5 µM; in the data set with HEL, 32.3 µM. Further, the result with H22 [17] was inactive. For the same compound, the result in the data set with H22 [22] was Active.

A word on the IC50: it is the point on the concentration scale where inhibition reaches its midpoint.
